{"source": "patent US20040087561A1", "about": "“Treatment of sexual dysfunction” (priority 2000, published 2004)", "assay_type_in_all_cases": "in vivo", "key": {"[1]": {"system": "ovariectomised female Sprague Dawley rats", "experiment": "Female rat sexual receptivity (lordosis quotient)", "conditions": "Example 2; quinelorane 6.25 μg/kg s.c., 90 min; Compound (1) 10 mg/kg i.p., 1 h", "method": "Ovariectomised adult female Sprague Dawley rats (180-200 g, from Charles River) were housed in groups of 6 in a reversed lighting system of 12 h light:dark (lights off 7.00-19.00 h). Two weeks after ovariectomy they were used for sexual activity tests. The experiments started at least 5 h into the dark period.\nCompound (1) was dissolved in 100% β-cyclodextrin and then diluted with saline to a final solution of 50% 2-hydroxypropyl-β-cyclodextrin. It was administered intraperitoneally (i.p.) at a dose of 10 mg/kg, in a dosing volume of 1 ml/kg. Quinelorane (6.25 μg/kg) was dissolved in water and administered s.c. as positive control. Forty eight hours before testing, ovariectomised female rats (as described above), were primed with 5 μg oestradiol benzoate dissolved in corn oil and injected subcutaneously. […] The females were placed with a series of vigorous male rats and subjected to 10 mounts.\nThe lordotic response of the animal was recorded and expressed as a percentage of the mounts (i.e. lordosis quotient, LQ), as previously described. Animals showing LQ<20 were considered non-receptive and were included in the study. Each rat was tested prior to administration of the compound and then tested similarly post-injection. The pre-treatment times were 1 h for Compound (1) and vehicle (50% β-cyclodextrin, i.p.) or 90 min for quinelorane.\nThe above compound was dissolved in PEG200 vehicle and administered orally. Quinelorane dihydrochloride (LY 163,502, 6.25 μg/kg) was dissolved in water and administered subcutaneously (s.c.), as a positive control. Both compounds were administered in a 1 ml/kg volume.\nForty eight hours before tests, the animals were primed with 5 μg oestradiol benzoate (Sigma Chemical. Co. Ltd., UK) dissolved in corn oil and injected subcutaneously. The females were placed with a series of vigorous male rats and subjected to 10 mounts. The lordotic response of the animal was recorded and expressed as a percentage of the mounts (i.e. lordosis quotient, LQ). […] Animals showing higher LQ were not included in the study. Each rat was tested prior to administration of the compound and then tested similarly at 1 h and 90 min post-injection of the above compound or quinelorane respectively."}, "[2]": {"system": "Female New Zealand rabbits", "experiment": "Pelvic nerve-stimulated female genital blood flow, anaesthetised rabbit model of sexual arousal", "conditions": "15 mg/kg sc", "method": "Female New Zealand rabbits (2.5 kg) were pre-medicated with a combination of Medetomidine (Domitor®) 0.5 ml/kg im., and Ketamine (Vetalar®) 0.25 ml/kg i.m. whilst maintaining oxygen intake via a face mask. The rabbits were tracheotomised using a Portex™ uncuffed endotracheal tube 3 ID., connected to ventilator and maintained at a ventilation rate of 30-40 breaths per minute, with an approximate tidal volume of 18-20 ml, and a maximum airway pressure of 10 cm H2O. Anaesthesia was then switched to Isoflurane and ventilation continued with O2 at 2 l/min. The right marginal ear vein was cannulated using a 23G or 24G catheter, and Lactated Ringer solution perfused at 0.5 ml/min. The rabbit was maintained at 3% Isoflurane during invasive surgery, dropping to 2% for maintenance anaesthesia.\nThe left groin area of the rabbit was shaved and a vertical incision was made approximately 5 cm in length along the thigh. […] Systolic and diastolic pressures were measured, and the mean arterial pressure calculated using the formula (diastolic ×2+systolic)÷3. Heart rate was measured via the pulse oxymeter and Po-ne-mah data acquisition software system (Ponemah Physiology Platform, Gould Instrument Systems Inc). […] A frequency response curve was determined at the start of each experiment in order to determine the optimum frequency to use as a sub-maximal response, normally 4 Hz. […]"}, "conscious male rat": {"system": "conscious male rat", "experiment": "Penile intracavernosal pressure in the conscious male rat (telemetry)", "method": "In addition to treating women with FSD, bombesin antagonists will be useful in treating male erectile dysfunction (MED. Both the non-selective BB1/2 antagonists (Compound 1; 10 mg/kg sc) and the selective BB I receptor antagonist (Compound 3; 15 mg/kg sc) is pro-erectile in a conscious rat model of penile erection (FIGS. 24 and 25). Erectile responses were recorded by measuring intracavemosal pressure using surgically implanted telemetric device. The specific details the surgical procedures, data acquisition and analysis can be found in detail in Bernabe 1999.\nCompound 1 and compound 3 were dissolved in 50% O-cyclodextrin in saline. They were administered at a dose of 15 mg/kg subcutaneously (sc). […] These increases equate to penile erection. Both Compounds 1 and 3 induced a number of erections in a similar manner to those observed with apomorphine or melanotan-II—both of which are clinically proven agents that are effective in the treatment of MED. Moreover the amplitude of the increases observed were similar to those observed with apomorphine or melanotan-II. The mechanism of action is thought to be similar to the effects on female genital flow ie CNS potentiation of the descending neuronal pathways that control penile erection."}}, "data": [{"smiles": "COc1ccc(C2(CNC(=O)[C@](C)(Cc3c[nH]c4ccccc34)NC(=O)Nc3ccc([N+](=O)[O-])cc3)CCCCC2)nc1", "note": "[Compound (1), (S) 3-(1H-Indol-3-yl)-N-[1-(5-methoxy-pyridin-2-yl)-cyclohexyl-methyl]-2-methyl-2-[3-(4-nitro-phenyl)-ureido]-propionamide]", "values": [{"measurement": "lordosis quotient (LQ) compared to LQ before administration", "setting": "[1]", "result": "significant (P<0.05) stimulatory effect on the LQ"}, {"measurement": "pelvic-nerve stimulated (PNS) increases in genital (vaginal and clitoral) blood flow", "setting": "[2]", "result": "potent enhancer"}, {"measurement": "penile erection (erectile response)", "setting": "conscious male rat; Compound 1 10 mg/kg sc, Compound 3 15 mg/kg sc, conscious rat model", "result": "pro-erectile"}, {"measurement": "intracavernosal pressure", "setting": "conscious male rat; one hour after 10 mg/kg sc Compound 1, 45 minutes after 15 mg/kg sc compound 3, conscious rat", "result": "significant increases in intracavernosal pressure"}]}]}
